Experimental findings from patent US10639276B2, “Liposomes with ginsenoside as membrane material and preparations and use thereof” (SHANGHAI GINPOSOME PHARMATECH CO., LTD., priority 2015, dated 2020) are described below.

Holding throughout (test): Cell survival rate, cell experiment in vitro (MTT)
Data set [1] concerns human ovarian cancer cell line (A2780).
For data set [2], the system named is paclitaxel-resistant human pancreatic cancer cell line (BxPC-3/T). Format: cell-based. Here is the method:
The new recovery BxPC-3 cells were cultured for two generations or three generations under conventional conditions to make the cells grow stably.

The test system of data set [3] is paclitaxel-resistant human ovarian cancer cell line (A2780/T).

Structures are written as SMILES.

In the case of `CC(=O)O[C@H]1C(=O)[C@@]2(C)[C@H]([C@H](OC(=O)c3ccccc3)[C@]3(O)C[C@H](OC(=O)[C@H](O)[C@@H](NC(=O)c4ccccc4)c4ccccc4)C(C)=C1C3(C)C)[C@]1(OC(C)=O)CO[C@@H]1C[C@@H]2O` [Taxol, paclitaxel], the “Cell Viability” value in data set [1] (C (μM): Taxol + Rg5 0.001953 + 0.011719, Taxol 0.001953, Blank Rg5 0.011719, Abraxane 0.001953) came to 0.866; in data set [1] (C (μM): Taxol + Rg5 0.007813 + 0.046875, Taxol 0.007813, Blank Rg5 0.046875, Abraxane 0.007813), 0.818; in data set [1] (C (μM): Taxol + Rg5 0.015625 + 0.09375, Taxol 0.015625, Blank Rg5 0.09375, Abraxane 0.015625), 0.673; in data set [1] (C (μM): Taxol + Rg5 0.03125 + 0.1875, Taxol 0.03125, Blank Rg5 0.1875, Abraxane 0.03125), 0.443; in data set [1] (C (μM): Taxol + Rg5 0.25 + 1.5, Taxol 0.25, Blank Rg5 1.5, Abraxane 0.25), 0.204; in data set [1] (C (μM): Taxol + Rg5 0.5 + 3, Taxol 0.5, Blank Rg5 3, Abraxane 0.5), 0.185. Besides, the “Cell Viability” value in data set [1] (C (μM): Taxol + Rg5 1 + 6, Taxol 1, Blank Rg5 6, Abraxane 1) turned out to be 0.133; in data set [2] (C (μM): Taxol + Rg5 1.5625 + 9.375, Taxol 1.5625, Blank Rg5 9.375) it was 0.85; in data set [2] (C (μM): Taxol + Rg5 12.5 + 75, Taxol 12.5, Blank Rg5 75), 0.639; in data set [2] (C (μM): Taxol + Rg5 25 + 150, Taxol 25, Blank Rg5 150) it was 0.454; in data set [2] (C (μM): Taxol + Rg5 50 + 300, Taxol 50, Blank Rg5 300), 0.272; in data set [2] (C (μM): Taxol + Rg5 200 + 1200, Taxol 200, Blank Rg5 1200) it was 0.15. In addition, the “Cell Viability” value was 0.134 in data set [2] (C (μM): Taxol + Rg5 400 + 2400, Taxol 400, Blank Rg5 2400); 0.856 in data set [3] (C (μM): Taxol + Rg5 1.5625 + 9.375, Taxol 1.5625, Blank Rg5 9.375, Abraxane 1.5625); 0.654 in data set [3] (C (μM): Taxol + Rg5 6.25 + 37.5, Taxol 6.25, Blank Rg5 37.5, Abraxane 6.25); 0.393 in data set [3] (C (μM): Taxol + Rg5 12.5 + 75, Taxol 12.5, Blank Rg5 75, Abraxane 12.5); 0.139 in data set [3] (C (μM): Taxol + Rg5 400 + 2400, Taxol 400, Blank Rg5 2400, Abraxane 400).
